Reference: patent US20180185360A1, “CGRP RECEPTOR ANTAGONIST COMPOUNDS FOR TOPICAL TREATMENT OF SKIN DISORDERS” (GALDERMA RESEARCH & DEVELOPMENT, priority 2015, published 2018)

Columns and labels:
[1] = tested on: Dermatophagoides farinae (Der f)-induced AD-like skin inflammation; test: Der f-induced atopic dermatitis mouse model; type: in vivo, Balb/c mice
Procedure: Der f has been purchased from Greer Laboratories and a Der f solution has been prepared in 70% DMSO in MilliQ water. 375 μg of Der f has been applied during 7 weeks on the left ear of mice. Compounds to be tested were applied every day of the week except during the weekend, on the Der f treated ear from week 4 until day 44. • 1.2. Compounds • 1.2.1. MK3207 (CD10192/41) MK3207 (CD10192/41) has been provided by Galderma and 3% of MK3207 (CD10192/41) solutions in ethanol have been prepared. • 1.2.2. Triamcinolone Acetonide Triamcinolone acetonide has been chosen as positive control for the Der f model. 0.01% of triamcinolone acetonide solution in ethanol has been used. • 1.2.3. Ethanol Ethanol 100 has been chosen as a vehicle to solubilize the compounds. • 1.3. Mice Balb/c mice strain has been used for the study. These animals have been obtained from controlled breeding and were specific pathogen free. The animals have been provided by Janvier SAS, France. • 1.4. Protocol AD-like lesions have been induced by topical application of 375 μl of Der f solution on each side of the left ear for 7 weeks at day 1, day 8, day 15, day 22, day 29, day 36 and day 43. Mice have been treated from day 20 to day 43 five days by week with the different solutions administrated by the topical route. Measurement of ear swelling has been monitored 24 hours after each allergen application. After day 19, ear swelling has been daily measured before compound application. After mouse euthanasia, at Day 44 the left ear has been collected and has been washed in ethanol 70% and has been rinsed in PBS. Skin biopsies of the left ear, have then been collected for cytokines profile quantification with Luminex technique and for the quantification of the eosinophil peroxidase thanks to the ELISA method. Draining lymph nodes have been collected and cultivated a whole night restimulated or not with 0.5 mg/ml of Der f extract before quantifying the number of Der f specific lymphocytes T producing INFγ.

[2] = tested on: αCGRP-induced skin blood perfusion increase; test: CGRP-induced mice model of vasodilatation (Laser Doppler skin blood perfusion, right ear); type: in vivo, BALB/c mice; settings: for decrease of the CGRP flush (AUC skin blood perfusion 0 to 15 min): topical, 90 min prior to αCGRP 20 μg/kg i.v.
Procedure: (§1) This study has been conducted on BALB/c mice, 5 mice per group have been used.
Body temperature was maintained at 35° C.-37° C. using an automated heating pad. Images were obtained from Laser Doppler perfusion imaging PIM3 (Perimed, France). For each mouse, the skin blood perfusion was evaluated every minute on the right ear. The laser beam of the PIM3 scanned a skin area of 2×2 cm. Prior to the treatment, 2 scans were performed.
The duration of the recording was 22 minutes in total.
The blood perfusion is mapped as colour coded images at intervals of 1 min. For each mouse ear, the area corresponding to the internal part of the ear is defined and adjusted for each image. From this selected area, we take the highest of the first two images as the background of blood perfusion (I ref). The background value is then subtracted from the next images of the kinetic.
The software calculates the erythematous surface (S) and the mean of the blood perfusion intensity (I) in this surface for the region of interest for all the images. […] For each time of kinetic, the relative area of blood perfusion is calculated as follow: Relative area of perfusion=(I/I ref)×S

[3] = tested on: imiquimod (Aldara) induced psoriasiform skin inflammation; test: Imiquimod induced psoriasiform mice model; type: in vivo, Balb/c mice; settings: CD10192/41 at 2% topical twice daily, 2 h before and 6 h after Aldara
Procedure: Imiquimod psoriasiform model has been induced by daily topical application of Aldara (3.18 mg of imiquimod) for 3 or 7 days on the shaved back skin of Balb/c mice. The pharmacodynamic analysis were performed by using a transcriptional analysis at D4, a histological analysis at D4 and D8, a cells analysis at D8 and a Cytokines analysis at D8. • 1.2. Compounds • 1.2.1. Imiquimod
Imiquimod is sold under the name Aldara™ 5% by 3M-Pharmaceutical. 63.5 mg of Aldara cream is applied on the back skin of the mice, representing 3.2 mg of active compound. • 1.2.2. MK3207 (CD10192/41)
MK3207 compound is dissolved in PG/Ethanol 96 (30/70) and applied twice daily 2 h 00 before and 6 h 00 after Aldara treatment. • 1.2.3. Vehicles
PG/Ethanol (30/70) is used as a vehicle. • 1.2.4. Positive Control
CD0153F (Betamethasone valerate) at 0.01% (0.210 mM) in acetone by topical route is used as positive control. • 1.3. Mice
Balb/c mice strain has been used for the study. These animals have been obtained from controlled breeding and were specific pathogen free. The animals have been provided by Janvier SAS, France. • 1.4. Protocol […]
At day 4 skin biopsies were collected for quantifying gene expression of the inflammatory response via RT-PCR and for measuring epidermis thickness via histological stained slides (HE). […]

[4] = clinical development discontinued; cited from earlier work
[5] = Skin concentration two hours after single topical application on the mouse ear; type: in vivo, BALB/c mice; settings: 0.003% to 3%
Description: as §1
At the end of the scan, blood is collected from the abdominal artery on anesthetized animals. The animals are then euthanatized and the treated ear collected and weighted. Plasma and ear are snapped frozen.

[6] = MK3207 3% topical, day 44, ear skin biopsies, Luminex

O=C(CN1C(=O)C2(CCCC2)NC[C@H]1c1cc(F)cc(F)c1)Nc1ccc2c(c1)C[C@@]1(C2)C(=O)Nc2ncccc21 [MK3207, 2-[(8R)-8-(3,5-difluorophenyl)-10-oxo-6,9-diazaspiro[4.5]dec-9-yl]-N-[(2R)-2′-oxo-1,1′,2′,3-tetrahydrospiro[indene-2,3′-pyrrolo[2,3-b]pyridin]-5-yl]acetamide]
eosinophil peroxidase production (EPX) ([1]; MK3207 3% topical, day 44, ear skin biopsies, ELISA): reduction
production of IL17A [1, 6]: significantly reduced
production of IL-4 [1, 6]: significantly reduced
production of IL-5 [1, 6]: significantly reduced
production of IL-13 [1, 6]: significantly reduced
production of TNFα [1, 6]: significantly reduced
production of IFNγ by lymphocyte T cells ([1]; draining lymph nodes restimulated with Der f, MK3207 3%, triamcinolone acetonide 0.01% topical): decrease
ear swelling ([1]; topical MK3207, as soon as day 27 with a similar effect until day 43): decrease
ear swelling / ear edema ([1]; topical in ethanol, MK3207 3% (day 44), triamcinolone acetonide 0.01%): decrease
decrease of the CGRP flush (AUC skin blood perfusion 0 to 15 min) ([2]; MK3207 0.003% in ethanol, NS, p=0.2259): 31%
decrease of the CGRP flush (AUC skin blood perfusion 0 to 15 min) ([2]; MK3207 0.03% in ethanol, NS, p=0.0567): 49%
decrease of the CGRP flush (AUC skin blood perfusion 0 to 15 min) ([2]; MK3207 0.3% in ethanol, p=0.0112): 70%
decrease of the CGRP flush (AUC skin blood perfusion 0 to 15 min) ([2]; MK3207 3% in ethanol, p=0.0083): 80%
inhibition of αCGRP-induced increase in skin blood perfusion, dose dependence ([2]; topical 0.003% to 3%, 90 minutes prior to αCGRP, p=0.0017): inhibited this increase in a dose-dependent manner
reduction of the epidermis thickness ([3]; day 4): 33%
reduction of the number of IL17-production within the γδ T cells ([3]; day 8): 55%
toxicity associated with oral use [4]: severe hepatotoxicity
detection in skin samples [5]: detected in skin samples at all doses tested

NCCCC[C@H](NC(=O)[C@@H](Cc1cc(Br)c(O)c(Br)c1)NC(=O)N1CCC(N2Cc3ccccc3NC2=O)CC1)C(=O)N1CCN(c2ccncc2)CC1 [olcegepant, reference compound]
toxicity associated with oral use [4]: severe hepatotoxicity

O=C(N[C@@H]1CC[C@@H](c2cccc(F)c2F)CN(CC(F)(F)F)C1=O)N1CCC(n2c(=O)[nH]c3ncccc32)CC1 [telcagepant, reference compound]
toxicity associated with oral use [4]: severe hepatotoxicity
